Experimental data reported in patent US20200138827A1, “SMALL MOLECULE MODULATORS OF HUMAN STING” (Curadev Pharma Limited, priority 2017, published 2020).
Structures can show the parent of a compound that is named as a salt.

target: T1, WT/R232 STING protein (Homo sapiens, UniProt Q86WV6, H232R); test: Luciferase reporter assay in HEK293T-hSTING-Luciferase cells, WT/R232; type: cell-based; details: 20 hr stimulation, read-out: R232 Activity (EC50 range)
T1 construct: host or cells: HEK293T
Method in brief: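 […], read by luminescence from supernatant after 20 h compound stimulation. Cells: clonally selected HEK293T (5×10^5/well) stably carrying WT/R232 human STING and a luciferase reporter under five tandem ISREs fused to an ISG54 minimal promoter.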

T1 sequence (Q86WV6 whole entry H232R): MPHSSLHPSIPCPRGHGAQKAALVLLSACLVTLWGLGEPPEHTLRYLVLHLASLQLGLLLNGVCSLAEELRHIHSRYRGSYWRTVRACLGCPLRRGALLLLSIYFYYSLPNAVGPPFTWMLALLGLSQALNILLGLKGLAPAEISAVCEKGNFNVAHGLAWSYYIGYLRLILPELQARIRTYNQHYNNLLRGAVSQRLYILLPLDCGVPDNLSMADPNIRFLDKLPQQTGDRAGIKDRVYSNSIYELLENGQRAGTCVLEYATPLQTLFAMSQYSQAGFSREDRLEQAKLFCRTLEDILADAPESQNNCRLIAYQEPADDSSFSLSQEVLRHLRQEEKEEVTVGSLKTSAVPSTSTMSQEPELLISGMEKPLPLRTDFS

SMILES	EC50
O=C(NCC1CCCCC1)c1cnc2c(c1)N(Cc1c(F)cccc1Cl)C(=O)CS2 [Example 179, 1-(2-chloro-6-fluorobenzyl)-N-(cyclohexyl-methyl)-2-oxo-2,3-dihydro-1H-pyrido[2,3-b-1,4]thiazine-7-carboxamide]	> 10 µM
O=C(NCc1ccco1)c1cnc2c(c1)N(Cc1ccccc1)C(=O)CS2 [Example 180, 1-benzyl-N-(furan-2-ylmethyl)-2-oxo-2,3-dihydro-1H-pyrido[2,3-b-1,4]thiazine-7-carboxamide]	> 10 µM
O=C(NCc1ccco1)c1cc2c(cn1)SCC(=O)N2Cc1c(F)cccc1Cl [Example 182, 1-(2-chloro-6-fluorobenzyl)-N-(furan-2-ylmethyl)-2-oxo-2,3-dihydro-1H-pyrido[3,4-b-1,4]thiazine-7-carboxamide]	> 10 µM
Cc1cccc(CNC(=O)c2ccc3c(n2)N(Cc2c(F)cccc2Cl)C(=O)C(C)S3)c1 (stereo not drawn) [Example 184, 4-(2-chloro-6-fluorobenzyl)-2-methyl-N-(3-methylbenzyl)-3-oxo-3,4-dihydro-2H-pyrido[3,2-b-1,4]thiazine-6-carboxamide]	> 10 µM
CC1Sc2ccc(C(=O)NCc3c(F)cc(F)cc3F)nc2N(Cc2cc(F)cc(F)c2)C1=O (stereo not drawn) [Example 185, 4-(3,5-difluorobenzyl)-2-methyl-3-oxo-N-(2,4,6-trifluorobenzyl)-3,4-dihydro-2H-pyrido[3,2-b-1,4]thiazine-6-carboxamide]	1 to 10 µM
CC1Sc2ccc(C(=O)NCc3c(F)cc(F)cc3F)nc2N(Cc2c(F)cccc2Cl)C1=O (stereo not drawn) [Example 186, 4-(2-chloro-6-fluorobenzyl)-2-methyl-3-oxo-N-(2,4,6-trifluorobenzyl)-3,4-dihydro-2H-pyrido[3,2-b-1,4]thiazine-6-carboxamide]	1 to 10 µM
Cc1ccc(CNC(=O)c2ccc3c(n2)N(C(C)c2cc(F)cc(F)c2)C(=O)C(C)S3)o1 (stereo not drawn) [Example 204, 4-(1-(3,5-difluorophenyl)ethyl)-2-methyl-N-((5-methylfuran-2-yl)methyl)-3-oxo-3,4-dihydro-2H-pyrido[3,2-b] [1,4] thiazine-6-carboxamide]	1 to 10 µM
Cc1ccc(CNC(=O)c2ccc3c(n2)N(Cc2cccc(C(N)=O)c2)C(=O)C(C)S3)o1 (stereo not drawn) [Example 205, 4-(3-carbamoyl-benzyl)-2-methyl-N-((5-methylfuran-2-yl)methyl)-3-oxo-3,4-dihydro-2H-pyrido[3,2-b][1,4]thiazine-6-carboxamide]	1 to 10 µM
COc1cc(CN2C(=O)C(C)Sc3ncc(C(=O)NCc4c(F)cc(F)cc4F)cc32)ccn1 (stereo not drawn) [Example 206, 1-((2-methoxypyridin-4-yl)methyl)-3-methyl-2-oxo-N-(2,4,6-trifluorobenzyl)-2,3-dihydro-1H-pyrido[2,3-b][1,4] thiazine-7-carboxamide]	1 to 10 µM
Cc1ccc(CNC(=O)c2cnc3c(c2)N(Cc2c(F)cccc2Cl)C(=O)CS3)o1 [Example 207, 1-(2-chloro-6-fluorobenzyl)-N-((5-methylfuran-2-yl)methyl)-2-oxo-2,3-dihydro-1H-pyrido [2,3-b][1,4] thiazine-7-carboxamide]	1 to 10 µM
CC1Sc2ncc(C(=O)NCc3cc4ccccc4o3)cc2N(Cc2cc(F)cc(F)c2)C1=O (stereo not drawn) [Example 208, N-(benzofuran-2-ylmethyl)-1-(3,5-difluorobenzyl)-3-methyl-2-oxo-2,3-dihydro-1H-pyrido[2,3-b][1,4] thiazine-7-carboxamide]	> 10 µM
Cc1ccc(CNC(=O)c2cnc3c(c2)N(Cc2cc(F)cc(F)c2)C(=O)C(C)(CO)S3)o1 (stereo not drawn) [Example 209, 1-(3,5-difluorobenzyl)-3-(hydroxymethyl)-3-methyl-N-((5-methylfuran-2-yl)methyl)-2-oxo-2,3-dihydro-1H-pyrido [2,3-b] [1,4]thiazine-7-carboxamide]	> 10 µM
CC1(CO)Sc2ncc(C(=O)NCc3cc4ccccc4o3)cc2N(Cc2cc(F)cc(F)c2)C1=O (stereo not drawn) [Example 210, N-(benzofuran-2-ylmethyl)-1-(3,5-difluorobenzyl)-3-(hydroxymethyl)-3-methyl-2-oxo-2,3-dihydro-1H-pyrido[2,3-b] [1,4] thiazine-7-carboxamide]	> 10 µM
CC1(CO)Sc2ncc(C(=O)NCc3c(F)cc(F)cc3F)cc2N(Cc2cc(F)cc(F)c2)C1=O (stereo not drawn) [Example 211, 1-(3,5-difluorobenzyl)-3-(hydroxymethyl)-3-methyl-2-oxo-N-(2,4,6-trifluorobenzyl)-2,3-dihydro-1H-pyrido [2,3-b] [1,4]thiazine-7-carboxamide]	> 10 µM
Cc1noc(CNC(=O)c2cnc3c(c2)N(Cc2cc(F)cc(F)c2)C(=O)C(C)S3)n1 (stereo not drawn) [Example 212, 1-(3,5-difluorobenzyl)-3-methyl-N-((3-methyl-1,2,4-oxadiazol-5-yl)methyl)-2-oxo-2,3-dihydro-1H-pyrido[2,3-b] [1,4] thiazine-7-carboxamide]	> 10 µM

Second part, the molecule after the results:

EC50	SMILES
> 10 µM	Cc1cnc(CNC(=O)c2cnc3c(c2)N(Cc2cc(F)cc(F)c2)C(=O)C(C)S3)o1 (stereo not drawn) [Example 213, 1-(3,5-difluorobenzyl)-3-methyl-N-((5-methyloxazol-2-yl)methyl)-2-oxo-2,3-dihydro-1H-pyrido[2,3-b][1,4]thiazine-7-carboxamide]
> 10 µM	CC1Sc2ncc(C(=O)NCc3cccnn3)cc2N(Cc2cc(F)cc(F)c2)C1=O (stereo not drawn) [Example 214, 1-(3,5-difluorobenzyl)-3-methyl-2-oxo-N-(pyridazin-3-ylmethyl)-2,3-dihydro-1H-pyrido [2,3-b][1,4] thiazine-7-carboxamide]
> 10 µM	CC1Sc2ncc(C(=O)NCc3ccn(C)n3)cc2N(Cc2cc(F)cc(F)c2)C1=O (stereo not drawn) [Example 215, 1-(3,5-difluorobenzyl)-3-methyl-N-((1-methyl-1H-pyrazol-3-yl)methyl)-2-oxo-2,3-dihydro-1H-pyrido[2,3-b][1,4]thiazine-7-carboxamide]
> 10 µM	CC1Sc2ncc(C(=O)NCc3cnn(C)c3)cc2N(Cc2cc(F)cc(F)c2)C1=O (stereo not drawn) [Example 216, 1-(3,5-difluorobenzyl)-3-methyl-N-((1-methyl-1H-pyrazol-4-yl)methyl)-2-oxo-2,3-dihydro-1H-pyrido[2,3-b][1,4] thiazine-7-carboxamide]
> 10 µM	CC1Sc2ncc(C(=O)NCc3cnccn3)cc2N(Cc2cc(F)cc(F)c2)C1=O (stereo not drawn) [Example 217, 1-(3,5-difluorobenzyl)-3-methyl oxo-N-(pyrazin-2-ylmethyl)-2,3 dihydro-1H-pyrido[2,3-b][1,4]thiazine-7-carboxamide]
> 10 µM	N#Cc1cc(C(=O)NCc2ccco2)cc2c1SCC(=O)N2Cc1ccccc1 [Example 219, 4-Benzyl-8-cyano-N-(furan-2-ylmethyl)-3-oxo-3,4-dihydro-2H-benzo[b-1,4]thiazine-6-carboxamide]
> 10 µM	N#Cc1cc(C(=O)NCc2ccco2)cc2c1SCC(=O)N2Cc1cc(F)cc(F)c1 [Example 220, 8-cyano-4-(3,5-difluorobenzyl)-N-(furan-2-ylmethyl)-3-oxo-3,4-dihydro-2H-benzo[b-1,4]thiazine-6-carboxamide]
> 10 µM	O=C(NCc1ccco1)c1cc(Br)c2c(c1)N(Cc1ccccc1F)C(=O)CS2 [Example 221, 8-bromo-4-(2-fluorobenzyl)-N-(furan-2-ylmethyl)-3-oxo-3,4-dihydro-2H-benzo[b-1,4]thiazine-6-carboxamide]
> 10 µM	O=C(NCc1c(F)cc(F)cc1F)c1cc(CCO)c2c(c1)N(Cc1ccc(F)cc1)C(=O)CS2 [Example 222, 4-(4-fluorobenzyl)-8-(2-hydroxyethyl)-3-oxo-N-(2,4,6-trifluorobenzyl)-3,4-dihydro-2H-benzo[b][1,4] thiazine-6-carboxamide]
> 10 µM	CC(O)c1cc(C(=O)NCc2c(F)cc(F)cc2F)cc2c1SCC(=O)N2Cc1ccc(F)cc1 (stereo not drawn) [Example 223, 4-(4-fluorobenzyl)-8-(1-hydroxyethyl)-3-oxo-N-(2,4,6-trifluorobenzyl)-3,4-dihydro-2H-benzo[b][1,4] thiazine-6-carboxamide]
> 10 µM	NCc1cc(C(=O)NCc2c(F)cc(F)cc2F)cc2c1SCC(=O)N2Cc1ccc(F)cc1 [Example 224, 8-(aminomethyl)-4-(4-fluorobenzyl)-3-oxo-N-(2,4,6-trifluorobenzyl)-3,4-dihydro-2H-benzo[b][1,4] thiazine-6-carboxamide hydrochloride]
> 10 µM	NC(=O)c1cc(C(=O)NCc2c(F)cc(F)cc2F)cc2c1SCC(=O)N2Cc1ccc(F)cc1 [Example 225, 4-(4-fluorobenzyl)-3-oxo-N6-(2,4,6-trifluorobenzyl)-3,4-dihydro-2H-benzo[b][1,4] thiazine-6,8-dicarboxamide]
> 10 µM	Cc1cc(C(=O)NCc2ccco2)cc2c1SCC(=O)N2Cc1ccccc1F [Example 226, 4-(2-Fluorobenzyl)-N-(furan-2-ylmethyl)-8-methyl-3-oxo-3,4-dihydro-2H-benzo[b-1,4]thiazine-6-carboxamide]
> 10 µM	O=C(NCc1ccco1)c1cc(C2CC2)c2c(c1)N(Cc1ccccc1F)C(=O)CS2 [Example 227]
> 10 µM	O=C(NCc1ccco1)c1cc2c(cc1Br)SCC(=O)N2Cc1ccccc1F [Example 228, 7-bromo-4-(2-fluorobenzyl)-N-(furan-2-ylmethyl)-3-oxo-3,4-dihydro-2H-benzo[b][1,4]thiazine-6-carboxamide]
> 10 µM	O=C(NCc1ccco1)c1cc2c(cc1C1CC1)SCC(=O)N2Cc1ccccc1F [Example 229, 7-cyclopropyl-4-(2-fluorobenzyl)-N-(furan-2-ylmethyl)-3-oxo-3,4-dihydro-2H-benzo[b-1,4]thiazine-6-carboxamide]
> 10 µM	Cc1cc2c(cc1C(=O)NCc1ccco1)N(Cc1ccccc1)C(=O)CS2 [Example 230, 4-Benzyl-N-(furan-2-ylmethyl)-7-methyl-3-oxo-3,4-dihydro-2H-benzo[b-1,4]thiazine-6-carboxamide]
> 10 µM	O=C(NCc1ccco1)c1ccc2c(c1)N(Cc1c(F)cccc1Cl)C(=O)CO2 [Example 231, 4-(2-Chloro-6-fluorobenzyl)-N-(furan-2-ylmethyl)-3-oxo-3,4-dihydro-2H-benzo[b-1,4]oxazine-6-carboxamide]
